The record followed here is patent US9121026B2 (priority 2004, dated 2015).

Assay [1] concerns RE700A i PCDR2-HXT7 (IT[CDR2]). Briefly: Growth inhibition of IT[CDR2] by 2-DG. To be noted: 20 h 28° C., maltose, regarding growth in the absence of 2-DG. In kind it is cell-based, Saccharomyces cerevisiae. As for the experimental part: FIG. 8: Growth inhibition of RE700A and IT[CDR2] by 2-DG. RE700A and IT[CDR2] were incubated for 20 h at 28° C. with maltose (2% (w/v)) as the sole carbon source and increasing 2-DG concentrations as indicated. The optical density was measured at 600 nm every 15 minutes and the integral under the growth curve was calculated. Inhibition of growth is shown in percent regarding growth in the absence of 2-DG. Growth of IT[CDR2] was inhibited by 30% at a 2-DG concentration of 0.1% (w/v), by 79% at a 2-DG concentration of 1% (w/v), by 89% at a 2-DG concentration of 2% (w/v), by 91% at a 2-DG concentration of 3% (w/v).
(4) Integrated screening system for inhibitors of PCDR2: S. cerevisiae strain RE700A was genetically modified as described in Examples 1 and 2 to yield strain IT[CDR2], chromosomally expressing HXT7 under the control of the promoter of CDR2 (PCDR2) (for the complete genotype see Table 1). The inhibition of growth of IT[CDR2] by 2-DG was tested. The growth of this strain was inhibited by 50% at a 2-DG concentration of 1% (w/v) and by 80% at a 2-DG concentration of 2% (w/v) (FIG. 8).

Assay [2] relates to RE700A i PPDR5-HXT7 (IT[PDR]). The assay is described as follows: Growth inhibition of IT[PDR] by 2-DG. In kind it is cell-based, Saccharomyces cerevisiae. As to conditions: 20 h 28° C., maltose; for Inhibition of growth: IT[PDR], in percent of growth of RE700A. As for the experimental part:
(B) RE700A, ICFP and IT[PDR] were incubated 20 h at 28° C. with maltose (2% (w/v)) as the sole carbon source and the indicated 2-DG concentrations. The optical density was measured at 600 nm every 15 minutes and the integral under the growth curve is calculated. Inhibition of growth of ICFP and IT[PDR] is shown in percent of growth of RE700A. Growth of ICFP was inhibited by 15% at 0.01% (w/v) 2-DG, by 74% at 0.03% (w/v) 2-DG, by 80% at 0.05% (w/v) 2-DG and by 83% at 0.1% (w/v) 2-DG. Growth of IT[PDR] was inhibited by 21% at 0.01% (w/v) 2-DG, by 79% at 0.03% (w/v) 2-DG, by 88% at 0.05% (w/v) 2-DG and by 96% in 0.1% (w/v) 2-DG.
(A) Growth inhibition of RE700A i PPDR5-HXT7 (IT[PDR]), RE700A Δpdr1 tok1::PPDR5-HXT7, RE700A Δpdr3 tok1::PPDR5-HXT7 and RE700A Δpdr1,pdr3 tok1::PPDR5-HXT7 at increasing 2-DG concentrations. RE700A i PPDR5-HXT7 (IT[PDR]), RE700A Δpdr1 tok1::PPDR5-HXT7, RE700A Δpdr3 tok1::PPDR5-HXT7 and RE700A Δpdr1,pdr3 tok1::PPDR5-HXT7 were incubated 20 h at 28° C. with Maltose (2% (w/v)) as the sole carbon source and 2-DG concentrations as indicated. The optical density was measured at 600 nm every 15 minutes and the integral under the growth curve was calculated. Inhibition of growth caused by 2-DG is shown in percent. The growth of the strain RE700A tok1::PPDR5-HXT7 (IT[PDR]) was inhibited by 50% at 0.02% (w/v) 2-DG. Growth of the strains RE700A Δpdr1 tok1::PPDR5-HXT7 and RE700A Δpdr3 tok1::PPDR5-HXT7 was inhibited by 50% at 0.026% (w/v) 2-DG.
Strain growth: The growth of the strains in liquid medium was determined by measuring the optical density at 600 nm. To obtain growth curves, measurements were performed every 15 min. Alternatively, start and endpoint (after 12-16 h) measurements were carried out.

Several values for one entry are separate records, joined by “and”; a condition that tells them apart may be missing. Equal entries are not always repeated.

As usually defined, the Inhibition of growth is the relative decrease from the control value, in per cent. The low end stands for a weak effect, the high end for a strong effect. For `O=CC[C@@H](O)[C@H](O)[C@H](O)CO` [2-DG, 2-deoxy-glucose], the Inhibition of growth in assay [1] (0.1% (w/v) 2-DG) stood at 30%; in assay [1] (3% (w/v) 2-DG), 91%; in assay [2] (0.01% (w/v) 2-DG), 21%; in assay [2] (0.03% (w/v) 2-DG), 79%; in assay [2] (0.05% (w/v) 2-DG), 88%; in assay [2] (0.1% (w/v) 2-DG), 96%. Moreover, the “2-DG concentration for 50% growth inhibition” value in assay [2] (RE700A tok1::PPDR5-HXT7 (IT[PDR]), liquid media) is 0.021 % (w/v) and 0.02 % (w/v).
